Results on eleven compounds are retold here after ChEMBL document CHEMBL1201862, “PubChem BioAssay data set” (2004).

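Interpolation was linear, between the two tested concentrations surrounding the appropriate level; five concentrations were tested over 48 hours in 96-well plates. GI50 marks 50% less growth.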 Calls of active or inactive are those of the source. Rule as the data show it: active = GI50 up to about 1.1 µM and inactive = higher.

Common to all, as to assay: NCI anticancer screen, dose series, 48 h
Experiment [1] relates to 786-0.
Experiment [2] deals with U-251.
Experiment [3] has as its system UACC-257.
Experiment [4] has as its system OVCAR-5.
Experiment [5] has as its system SN12C.
For experiment [6], the system named is HCT-116.
The subject of experiment [7] is HL-60.
For experiment [8], the system named is DU-145.
Experiment [9] deals with CAKI-1.
The subject of experiment [10] is NCI-H23.
The subject of experiment [11] is MDA-MB-435.
Experiment [12] relates to K562.
Experiment [13] deals with Hs-578T.
Experiment [14] has as its system EKVX.
Experiment [15] concerns SNB-19.
The test system of experiment [16] is HOP-62.
Experiment [17] relates to MCF7.
The subject of experiment [18] is CCRF-CEM.
The subject of experiment [19] is M14.
Experiment [20] has as its system SR.

Turning to `COc1ccc(OCC(=N/NC(=O)c2ccncc2)/N=C/c2ccncc2)cc1`, the GI50 in [1] is > 100 µM (inactive); in [2], > 100 µM (inactive); in experiment [3], > 100 µM (inactive); in [4] it was > 100 µM (inactive); in experiment [5] it was > 100 µM (inactive); in experiment [6], 83.9 µM (inactive). Further, the GI50 was 57.9 µM (inactive) in experiment [7]; > 100 µM (inactive) in experiment [8]; > 100 µM (inactive) in experiment [9]; > 100 µM (inactive) in experiment [10]; 22.6 µM (inactive) in experiment [11]; 57.9 µM (inactive) in [12]. Moreover, the GI50 in [13] is > 100 µM (inactive); in experiment [14] it was > 100 µM (inactive); in experiment [15], > 100 µM (inactive); in experiment [16] it was 71.8 µM (inactive); in [17] it was 54.6 µM (inactive); in experiment [18], > 100 µM (inactive). Besides, in experiment [19], the GI50 is 82 µM (inactive).

In the case of `CCN(CC(=O)O)CC(=O)O`, the GI50 in experiment [1], in experiment [2], in experiment [3], in experiment [4], in experiment [5] and in experiment [6] was > 100 µM (inactive) in each case. The GI50 in experiment [8], in [9], in [10], in experiment [11], in experiment [12] and in experiment [13] was > 100 µM (inactive) throughout. Also, the GI50 in experiment [14], in [15], in experiment [16], in experiment [17], in [18] and in experiment [19] was > 100 µM (inactive) throughout.

Regarding `Oc1ccc2ccccc2c1CCc1c(O)ccc2ccccc12`, the GI50 in experiment [1] was 16.2 µM (inactive); in experiment [2], 13.3 µM (inactive); in [3], 13.9 µM (inactive); in experiment [4], 14.1 µM (inactive); in [5], 11.2 µM (inactive); in [6], 12.6 µM (inactive). In addition, the GI50 in experiment [7] is 22.8 µM (inactive); in experiment [9] it was 7.45 µM (inactive); in experiment [10], 11.8 µM (inactive); in [11], 12.8 µM (inactive); in experiment [12], 7.55 µM (inactive); in [13] it was 16.2 µM (inactive). Moreover, the GI50 in experiment [14] is 13.4 µM (inactive); in [20] it was 12 µM (inactive); in experiment [15], 16.9 µM (inactive); in experiment [16] it was 13.5 µM (inactive); in experiment [17], 12.7 µM (inactive); in experiment [18], 11.9 µM (inactive). Moreover, the GI50 in [19] was 15.5 µM (inactive).

For `CC(=O)O[C@@H]1[C@@H](O)C2=C3[C@]4(C)[C@@H]1C(C)(C)C(=O)C[C@@H]4[C@]3(O)[C@H](OC(C)=O)[C@@]1(C[C@@H]1C)C2=O`, the GI50 in experiment [1] is 15.6 µM (inactive); in experiment [2], 16 µM (inactive); in experiment [3], 13.9 µM (inactive); in experiment [4], 23.7 µM (inactive); in experiment [5], 18.4 µM (inactive); in experiment [6], 16.1 µM (inactive). Moreover, the GI50 in experiment [7] is 13.6 µM (inactive); in experiment [8], 17.3 µM (inactive); in experiment [9], 15.5 µM (inactive); in [10] it was 29.3 µM (inactive); in [11] it was 16 µM (inactive); in [12] it was 2.71 µM (inactive). Moreover, the GI50 in experiment [13] is 41.2 µM (inactive); in [14], 19.2 µM (inactive); in experiment [15], 21 µM (inactive); in experiment [17], 19 µM (inactive); in experiment [18], 7.82 µM (inactive); in [19], 25.2 µM (inactive).

In the case of `NC1CCCCC1.O=C(CP(=O)(O)O)NC(CC(=O)OCc1ccccc1)C(=O)OCc1ccccc1` (configuration not stated), the GI50 in experiment [1], in [2], in [3], in experiment [4], in experiment [5] and in [6] was > 100 µM (inactive) throughout. Besides, the GI50 in experiment [7], in experiment [8], in experiment [9], in experiment [10], in [11] and in experiment [12] was > 100 µM (inactive) each time. The GI50 in [13], in experiment [14], in experiment [20], in experiment [15], in [16] and in experiment [18] was > 100 µM (inactive) throughout. Besides, the GI50 in experiment [19] is > 100 µM (inactive).

Take `Cc1ccsc1/C=N/Nc1ccccn1`: the GI50 in experiment [1] was 68.5 µM (inactive); in experiment [2] it was 76.6 µM (inactive); in experiment [3], 54.2 µM (inactive); in experiment [4], > 100 µM (inactive); in [5] it was > 100 µM (inactive); in experiment [6], 43.8 µM (inactive). Also, the GI50 in [8] was 55.6 µM (inactive); in experiment [9], > 100 µM (inactive); in experiment [10], 70.6 µM (inactive); in [11], 50.6 µM (inactive); in experiment [12] it was 43.1 µM (inactive); in [13], > 100 µM (inactive). Besides, the GI50 in [14] was 15.2 µM (inactive); in experiment [15] it was > 100 µM (inactive); in experiment [16] it was > 100 µM (inactive); in [17], 1.71 µM (inactive); in [18] it was 40.5 µM (inactive); in [19] it was 54 µM (inactive).

As for `CN1CC(c2ccccc2)=CC2=C1C=CC(=N)/C2=N\N`, the GI50 in experiment [1], in experiment [2], in [3], in [4], in [5] and in experiment [6] was > 100 µM (inactive) each time. In addition, the GI50 in experiment [9] is 5.46 µM (inactive); in experiment [10], > 100 µM (inactive); in experiment [11], > 100 µM (inactive); in [12] it was > 100 µM (inactive); in experiment [13], 35.3 µM (inactive); in experiment [14], > 100 µM (inactive). In addition, the GI50 in [20] is > 100 µM (inactive); in [15], 86.9 µM (inactive); in [16] it was 71.8 µM (inactive); in [17] it was > 100 µM (inactive); in experiment [18], > 100 µM (inactive); in [19] it was > 100 µM (inactive).

As to `CCCC1C(C#N)(C#N)C(C#N)=C(N)C1(C)C(C)=O` (configuration not stated), the GI50 in [1] is 53.3 µM (inactive); in experiment [2] it was > 100 µM (inactive); in experiment [3], 86.9 µM (inactive); in experiment [4], > 100 µM (inactive); in experiment [5], > 100 µM (inactive); in experiment [6], 73.1 µM (inactive). Moreover, the GI50 is 31.8 µM (inactive) in [7]; > 100 µM (inactive) in experiment [8]; 10.1 µM (inactive) in [9]; > 100 µM (inactive) in experiment [10]; > 100 µM (inactive) in experiment [11]; 37.3 µM (inactive) in experiment [12]. The GI50 in experiment [13], in [14], in experiment [15], in [17], in [18] and in experiment [19] was > 100 µM (inactive) in each case.

With `CCCCn1c(O)nc2c(N)ncnc21`, the GI50 in [1], in experiment [2], in experiment [3], in experiment [4], in experiment [5] and in [6] was > 100 µM (inactive) each time. Besides, the GI50 in [7], in experiment [8], in experiment [10], in experiment [11], in experiment [12] and in experiment [13] was > 100 µM (inactive) each time. The GI50 was 92.9 µM (inactive) in experiment [14]; > 100 µM (inactive) in [15]; > 100 µM (inactive) in experiment [16]; > 100 µM (inactive) in experiment [17]; > 100 µM (inactive) in experiment [18]; > 100 µM (inactive) in experiment [19].

Turning to `COC(=O)/C=C(\S/C=C(/c1ccccc1)N1CCn2c(C(=O)c3ccccc3)c(C(=O)OC)c(C(=O)OC)c21)C(=O)OC`, the GI50 was 1.66 µM (inactive) in experiment [1]; 3.93 µM (inactive) in [2]; 3.07 µM (inactive) in [3]; 9.95 µM (inactive) in experiment [4]; 5.05 µM (inactive) in experiment [5]; 2.34 µM (inactive) in experiment [6]. Moreover, the GI50 is 0.531 µM (active) in experiment [7]; 4.04 µM (inactive) in experiment [9]; 3.3 µM (inactive) in [10]; 3.97 µM (inactive) in experiment [11]; 3.53 µM (inactive) in experiment [12]; > 10 µM (inactive) in experiment [13]. The GI50 was > 10 µM (inactive) in experiment [14]; 2.61 µM (inactive) in experiment [20]; > 10 µM (inactive) in [15]; 2.69 µM (inactive) in experiment [16]; 1.42 µM (inactive) in experiment [17]; 0.733 µM (active) in [18]. In addition, the GI50 in experiment [19] was 2.4 µM (inactive).

Regarding `Cc1n[n+](CC(=O)c2ccccc2)c2sc(N)nn12`, the GI50 in experiment [1], in experiment [2], in [3], in [4], in [5] and in experiment [6] was > 100 µM (inactive) in each case. For the same compound, the GI50 in [8], in experiment [9], in experiment [10], in [11], in [12] and in experiment [13] was > 100 µM (inactive) each time. For the same compound, the GI50 in experiment [14], in experiment [15], in experiment [16], in experiment [17], in [18] and in experiment [19] was > 100 µM (inactive) each time.
